Assay results taken from patent publication US20260317324A1, “BIFUNCTIONAL COMPOUNDS FOR DEGRADING BRAF VIA UBIQUITIN PROTEOSOME PATHWAY” (Nurix Therapeutics, Inc., priority 2023, published 2026).

Target: T1, BRAF V600E (Homo sapiens, UniProt P15056, V600E)
T1 construct: endogenous C-terminal HiBiT fusion tag on BRAF V600E allele; endogenous in cells; host or cells: A375 clone 1F10 (CRISPR-Cas9 knock-in of the HiBiT tag; parental A375 from ATCC)
Assay: BRAF HiBiT degradation assay, C-terminal HiBiT-tagged BRAF V600E A375 cells (clone 1F10), Nano-Glo HiBiT Lytic assay
Type: cell-based
Details: A375 (BRAF V600E); for DC50: DC50 at 50%: fitted conc. at Y=50; for Dmax: A-375, percentage protein degraded at maximal compound effect relative to DMSO
In short: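 Luminescence read-out: Nano-Glo HiBiT lytic reagent with LgBiT, 10 min at room temperature. Signal normalised to DMSO-treated tagged cells, with wildtype A375 as background. Cells are endogenously tagged BRAF V600E A375 clone 1F10. Compounds were tested from 1 μM to 0.01 nM; Dmax is observed % degraded at maximal effect.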

T1 sequence (P15056 whole entry V600E, the tested form may be a part): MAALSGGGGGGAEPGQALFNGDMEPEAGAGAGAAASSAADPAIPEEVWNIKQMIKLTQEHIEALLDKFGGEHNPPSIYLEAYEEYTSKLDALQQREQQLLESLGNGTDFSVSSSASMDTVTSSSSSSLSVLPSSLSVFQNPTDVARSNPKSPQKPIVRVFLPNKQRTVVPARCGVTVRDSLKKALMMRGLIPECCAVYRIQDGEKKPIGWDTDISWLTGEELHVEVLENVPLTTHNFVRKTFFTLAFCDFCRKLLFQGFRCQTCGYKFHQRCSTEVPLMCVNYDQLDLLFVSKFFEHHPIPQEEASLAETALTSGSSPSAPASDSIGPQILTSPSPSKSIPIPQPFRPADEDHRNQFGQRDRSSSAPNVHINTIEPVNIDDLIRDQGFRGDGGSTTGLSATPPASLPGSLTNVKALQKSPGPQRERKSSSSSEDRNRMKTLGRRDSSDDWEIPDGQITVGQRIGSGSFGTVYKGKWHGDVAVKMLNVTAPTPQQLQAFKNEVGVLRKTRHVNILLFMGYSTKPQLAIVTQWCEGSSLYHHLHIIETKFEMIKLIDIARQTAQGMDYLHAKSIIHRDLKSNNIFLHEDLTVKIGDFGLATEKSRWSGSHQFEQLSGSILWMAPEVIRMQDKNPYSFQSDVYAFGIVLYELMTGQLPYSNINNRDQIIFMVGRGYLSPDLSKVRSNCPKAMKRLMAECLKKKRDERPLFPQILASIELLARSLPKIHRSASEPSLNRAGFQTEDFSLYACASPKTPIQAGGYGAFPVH

DC50	Dmax	Structure (SMILES)
10 to 50 nM	> 70%	CCCS(=O)(=O)Nc1cccc(-c2nc(C(C)(C)C)sc2-c2ccnc(Nc3cnn(CC4CCN(C(=O)CN5CCN(c6cc(C7CCC(=O)NC7=O)ccn6)CC5)CC4)c3)n2)c1F (racemic) [Compound 113, Rac-N-{3-[2-tert-butyl-5-(2-{[1-({1-[2-(4-{4-[(3R)-2,6-dioxopiperidin-3-yl]pyridin-2-yl}piperazin-1-yl)acetyl]piperidin-4-yl}methyl)-1H-pyrazol-4-yl]amino}pyrimidin-4-yl)-1,3-thiazol-4-yl]-2-fluorophenyl}propane-1-sulfonamide]
50 to 500 nM	30 to 70%	CCCS(=O)(=O)Nc1cccc(-c2nc(C(C)(C)C)sc2-c2ccnc(Nc3ccc4c(c3)CCN(C(=O)CN3CCN(c5cc(C6CCC(=O)NC6=O)ccn5)CC3)C4)n2)c1F (racemic) [Compound 120, Rac-N-(3-{2-tert-butyl-5-[2-({2-[2-(4-{4-[(3R)-2,6-dioxopiperidin-3-yl]pyridin-2-yl}piperazin-1-yl)acetyl]-1,2,3,4-tetrahydroisoquinolin-6-yl}amino)pyrimidin-4-yl]-1,3-thiazol-4-yl}-2-fluorophenyl)propane-1-sulfonamide]
50 to 500 nM	30 to 70%	CCCS(=O)(=O)Nc1cccc(-c2nc(C(C)(C)C)sc2-c2ccnc(N[C@H]3CC[C@H](N4CCN(CC5CCN(c6ccc(C7CCC(=O)NC7=O)cn6)CC5)CC4)CC3)n2)c1F (mixture of isomers) [Compound 135, N-{3-[2-tert-butyl-5-(2-{[(1r,4r)-4-{4-[(1-{5-[(3RS)-2,6-dioxopiperidin-3-yl]pyridin-2-yl}piperidin-4-yl)methyl]piperazin-1-yl}cyclohexyl]amino}pyrimidin-4-yl)-1,3-thiazol-4-yl]-2-fluorophenyl}propane-1-sulfonamide]
50 to 500 nM	30 to 70%	CCCS(=O)(=O)Nc1cccc(-c2nc(C(C)(C)C)sc2-c2ccnc(NC3CCN(C4CCN(CC5CCN(c6ccc(C7CCC(=O)NC7=O)cn6)CC5)CC4)CC3)n2)c1F (racemic) [Compound 136, Rac-N-(3-{2-tert-butyl-5-[2-({1′-[(1-{5-[(3R)-2,6-dioxopiperidin-3-yl]pyridin-2-yl}piperidin-4-yl)methyl]-[1,4′-bipiperidin]-4-yl}amino)pyrimidin-4-yl]-1,3-thiazol-4-yl}-2-fluorophenyl)propane-1-sulfonamide]
10 to 50 nM	> 70%	CCCS(=O)(=O)Nc1cccc(-c2nc(C(C)(C)C)sc2-c2ccnc(NC3CC4(C3)CN(CC3CCN(C(=O)C5CCN(c6ccc(C7CCC(=O)NC7=O)cc6)CC5)CC3)C4)n2)c1F (racemic) [Compound 140, Rac-N-[3-(2-tert-butyl-5-{2-[(2-{[1-(1-{4-[(3R)-2,6-dioxopiperidin-3-yl]phenyl}piperidine-4-carbonyl)piperidin-4-yl]methyl}-2-azaspiro[3.3]heptan-6-yl)amino]pyrimidin-4-yl}-1,3-thiazol-4-yl)-2-fluorophenyl]propane-1-sulfonamide]
50 to 500 nM	30 to 70%	CCCS(=O)(=O)Nc1cccc(-c2nc(C(C)(C)C)sc2-c2ccnc(NC3CC4(C3)CN(CC3CCN(CC5CCN(c6ccc(C7CCC(=O)NC7=O)cc6)CC5)CC3)C4)n2)c1F (racemic) [Compound 142, Rac-N-{3-[2-tert-butyl-5-(2-{[2-({1-[(1-{4-[(3R)-2,6-dioxopiperidin-3-yl]phenyl}piperidin-4-yl)methyl]piperidin-4-yl}methyl)-2-azaspiro[3.3]heptan-6-yl]amino}pyrimidin-4-yl)-1,3-thiazol-4-yl]-2-fluorophenyl}propane-1-sulfonamide]

Continued, compound first:

Structure (SMILES)	DC50	Dmax
CCCS(=O)(=O)Nc1cccc(-c2nc(C(C)(C)C)sc2-c2ccnc(Nc3cnn(C4CCN(C(=O)C5CCN(c6ccc(C(=O)NC7CCC(=O)NC7=O)nc6)CC5)CC4)c3)n2)c1F (racemic) [Compound 107, Rac-5-[4-(4-{4-[(4-{2-tert-butyl-4-[2-fluoro-3-(propane-1-sulfonamido)phenyl]-1,3-thiazol-5-yl}pyrimidin-2-yl)amino]-1H-pyrazol-1-yl}piperidine-1-carbonyl)piperidin-1-yl]-N-[(3R)-2,6-dioxopiperidin-3-yl]pyridine-2-carboxamide]	10 to 50 nM	30 to 70%
CCCS(=O)(=O)Nc1cccc(-c2nc(C(C)(C)C)sc2-c2ccnc(Nc3cnn(CC4CCN(C(=O)C5CCN(c6ccc(C(=O)NC7CCC(=O)NC7=O)nc6)CC5)CC4)c3)n2)c1F (racemic) [Compound 115, Rac-5-{4-[4-({4-[(4-{2-tert-butyl-4-[2-fluoro-3-(propane-1-sulfonamido)phenyl]-1,3-thiazol-5-yl}pyrimidin-2-yl)amino]-1H-pyrazol-1-yl}methyl)piperidine-1-carbonyl]piperidin-1-yl}-N-[(3R)-2,6-dioxopiperidin-3-yl]pyridine-2-carboxamide]	50 to 500 nM	30 to 70%
CCCS(=O)(=O)Nc1cccc(-c2nc(C(C)(C)C)sc2-c2ccnc(Nc3ccc4c(c3)CCN(C(=O)C3CCN(c5ccc(C(=O)NC6CCC(=O)NC6=O)nc5)CC3)C4)n2)c1F (racemic) [Compound 122, Rac-5-(4-{6-[(4-{2-tert-butyl-4-[2-fluoro-3-(propane-1-sulfonamido)phenyl]-1,3-thiazol-5-yl}pyrimidin-2-yl)amino]-1,2,3,4-tetrahydroisoquinoline-2-carbonyl}piperidin-1-yl)-N-[(3R)-2,6-dioxopiperidin-3-yl]pyridine-2-carboxamide]	–	30 to 70%
CCN(C)S(=O)(=O)Nc1cccc(-c2nc(C(C)(C)C)sc2-c2ccnc(Nc3ccc(N4CCN(C(=O)[C@H]5CC[C@H](CN6CCc7ccc(C8CCC(=O)NC8=O)cc7C6)CC5)CC4)cn3)n2)c1F (mixture of isomers) [Compound 124, Rac-(3S)-3-(2-{[(1r,4r)-4-{4-[6-({4-[2-tert-butyl-4-(3-{[ethyl(methyl)sulfamoyl]amino}-2-fluorophenyl)-1,3-thiazol-5-yl]pyrimidin-2-yl}amino)pyridin-3-yl]piperazine-1-carbonyl}cyclohexyl]methyl}-1,2,3,4-tetrahydroisoquinolin-7-yl)piperidine-2,6-dione]	50 to 500 nM	30 to 70%
CCCS(=O)(=O)Nc1cccc(-c2nc(C(C)(C)C)sc2-c2ccnc(NC3CC4(CCN(C[C@H]5CC[C@H](Oc6ccc(C7CCC(=O)NC7=O)cc6)CC5)CC4)C3)n2)c1F (mixture of isomers) [Compound 130, N-[3-(2-tert-butyl-5-{2-[(7-{[(1r,4r)-4-{4-[(3RS)-2,6-dioxopiperidin-3-yl]phenoxy}cyclohexyl]methyl}-7-azaspiro[3.5]nonan-2-yl)amino]pyrimidin-4-yl}-1,3-thiazol-4-yl)-2-fluorophenyl]propane-1-sulfonamide]	> 500 nM	30 to 70%
CCCS(=O)(=O)Nc1cccc(-c2nc(C(C)(C)C)sc2-c2ccnc(NC3CC4(CCN(C(=O)CN5CCN(c6ccc7c(c6)C(=O)N(C6CCC(=O)NC6=O)C7=O)CC5)CC4)C3)n2)c1F (racemic) [Compound 132, Rac-N-(3-{2-tert-butyl-5-[2-({7-[2-(4-{2-[(3R)-2,6-dioxopiperidin-3-yl]-1,3-dioxo-2,3-dihydro-1H-isoindol-5-yl}piperazin-1-yl)acetyl]-7-azaspiro[3.5]nonan-2-yl}amino)pyrimidin-4-yl]-1,3-thiazol-4-yl}-2-fluorophenyl)propane-1-sulfonamide]	10 to 50 nM	30 to 70%
CCCS(=O)(=O)Nc1cccc(-c2nc(C(C)(C)C)sc2-c2ccnc(N[C@H]3CC[C@H](N4CCN(C(=O)C5CCN(c6ccc(C7CCC(=O)NC7=O)cn6)CC5)CC4)CC3)n2)c1F (mixture of isomers) [Compound 137, N-{3-[2-tert-butyl-5-(2-{[(1r,4r)-4-[4-(1-{5-[(3RS)-2,6-dioxopiperidin-3-yl]pyridin-2-yl}piperidine-4-carbonyl)piperazin-1-yl]cyclohexyl]amino}pyrimidin-4-yl)-1,3-thiazol-4-yl]-2-fluorophenyl}propane-1-sulfonamide]	50 to 500 nM	30 to 70%
CCCS(=O)(=O)Nc1cccc(-c2nc(C(C)(C)C)sc2-c2ccnc(NC3CC4(C3)CN(C(=O)CN3CCN(CCCc5cccc6c5C(=O)N(C5CCC(=O)NC5=O)C6=O)CC3)C4)n2)c1F (racemic) [Compound 148, Rac-N-[3-(2-tert-butyl-5-{2-[(2-{2-[4-(3-{2-[(3R)-2,6-dioxopiperidin-3-yl]-1,3-dioxo-2,3-dihydro-1H-isoindol-4-yl}propyl)piperazin-1-yl]acetyl}-2-azaspiro[3.3]heptan-6-yl)amino]pyrimidin-4-yl}-1,3-thiazol-4-yl)-2-fluorophenyl]propane-1-sulfonamide]	> 500 nM	30 to 70%
CCCS(=O)(=O)Nc1cccc(-c2nc(C(C)(C)C)sc2-c2ccnc(NC3CC4(C3)CN(C(=O)CCCCCc3ccc5c(c3)C(=O)N(C3CCC(=O)NC3=O)C5)C4)n2)c1F (racemic) [Compound 150, Rac-N-{3-[2-tert-butyl-5-(2-{[2-(6-{2-[(3R)-2,6-dioxopiperidin-3-yl]-3-oxo-2,3-dihydro-1H-isoindol-5-yl}hexanoyl)-2-azaspiro[3.3]heptan-6-yl]amino}pyrimidin-4-yl)-1,3-thiazol-4-yl]-2-fluorophenyl}propane-1-sulfonamide]	50 to 500 nM	30 to 70%
CCCS(=O)(=O)Nc1cccc(-c2nc(C(C)(C)C)sc2-c2ccnc(Nc3ccc(C4CCN(C(=O)CCCCCc5ccc6c(c5)C(=O)N(C5CCC(=O)NC5=O)C6)CC4)cc3)n2)c1F (racemic) [Compound 151, Rac-N-(3-{2-tert-butyl-5-[2-({4-[1-(6-{2-[(3R)-2,6-dioxopiperidin-3-yl]-3-oxo-2,3-dihydro-1H-isoindol-5-yl}hexanoyl)piperidin-4-yl]phenyl}amino)pyrimidin-4-yl]-1,3-thiazol-4-yl}-2-fluorophenyl)propane-1-sulfonamide]	10 to 50 nM	30 to 70%
